The assay has as its target biuret hydrolase (BiuH) (Rhizobium johnstonii, UniProt Q1M7F4, C175S). Nature of the assay: X-ray crystal structure, […] Å. Format: binding.

Structures are written as SMILES.

Chain of biuret hydrolase (BiuH) (Q1M7F4 whole entry C175S): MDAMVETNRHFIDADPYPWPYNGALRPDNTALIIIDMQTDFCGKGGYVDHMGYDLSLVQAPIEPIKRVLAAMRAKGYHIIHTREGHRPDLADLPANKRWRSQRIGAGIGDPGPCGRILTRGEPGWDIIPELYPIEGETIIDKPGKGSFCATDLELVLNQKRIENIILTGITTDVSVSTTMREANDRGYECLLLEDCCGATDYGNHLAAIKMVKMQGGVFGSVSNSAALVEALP

Consider `NC(=O)NC(N)=O` [biuret], for which the “X-ray crystal structure, 2.22 Å” value was “A structure of the inactive Cys175Ser variant with biuret in the active site was obtained (PDB ID: 6AZQ)”.
